Article PMC4838342 (Nucleic Acids Research, 2015)
pKd: −log10 of the molar value. Ends that are not written are not given here.

Columns and labels:
(His)6-sNASP = assay: Pulldown of MBP-H3 fusions by (His)6-sNASP (epitope mapping); assay type: binding, human; conditions: MBP fusions from whole cell bacterial extracts; Nickel-NTA beads; SDS-PAGE, Coomassie
Protocol: (§1) Protein was eluted in the same buffer with 250 mM imidazole, but without protease inhibitors. The (His)6 tag was cleaved overnight by TEV protease, whilst concomitantly dialysing to 100 mM sodium chloride, 20 mM Tris–HCl pH 8.0, 1 mM EDTA and 5 mM dithiothreitol. Cleaved protein was further purified by ion-exchange using a ResourceQ column (GE Healthcare) before gel filtration chromatography in 200 mM sodium chloride, 20 mM Hepes-KOH pH 7.6 and 1 mM EDTA using a 26/60 Superdex 200 column (GE Healthcare). The purified protein was concentrated and stored in aliquots at −80°C. Homologues, truncations and point mutants of sNASP were expressed and purified using the same method. MBP-H3 peptide fusions were expressed in bacteria and used as whole cell extracts (epitope mapping) or purified over a Dextrin Sepharose column (GE Healthcare) in one-step purification in 0.5 M sodium chloride, 20 mM Hepes-KOH pH 7.6, 1 mM EDTA and 5 mM dithiothreitol. Concentrated protein was dialysed against 200 mM sodium chloride, 20 mM Hepes-KOH, 1 mM EDTA and 5 mM dithiothreitol and stored in aliquots at −80°C.
Mutations were made in the MBP H3 116–135 construct using a mixture of site-direct mutagenesis and oligo ligation. Whole cell extracts were prepared from bacteria and used as inputs for the pulldown experiments with (His)6-sNASP pre-bound to Nickel-NTA beads (GE Healthcare).

[1] = system: sNASP homologue from Chaetomium thermophilum; assay: Pulldown of MBP H3 116–135 by C. thermophilum sNASP homologue; assay type: binding; conditions: (His)6-tagged recombinant homologue
Protocol: as §1
(§2) Mutations were made in the MBP H3 116–135 construct using a mixture of site-direct mutagenesis and oligo ligation. Whole cell extracts were prepared from bacteria and used as inputs for the pulldown experiments with (His)6-sNASP pre-bound to Nickel-NTA beads (GE Healthcare). […]

sNASP [2] = assay: Isothermal titration calorimetry, sNASP titrated into MBP H3 116–135; parameters: species or system human; conditions: one-site binding model
Protocol: Isotherms were analysed by the software NITPIC and SEDPHAT ([43]) and plotted using the software GUSSI.

[3] = system: sNASP homologue from Arabidopsis thaliana; assay: Pulldown of MBP H3 116–135 by A. thaliana sNASP homologue; assay type: binding; conditions: (His)6-tagged recombinant homologue
Protocol: as §1, §2

Sim3 [4] = assay: Gel filtration, Sim3 + MBP H3 116–135; assay type: binding, Schizosaccharomyces pombe; conditions: Superdex S200; 20 mM Hepes-KOH pH 7.5, 200 mM NaCl
Protocol: (§3) Analytical gel filtration was carried out using a Superdex S200 10/300 Gl column (GE Healthcare) in 20 mM Hepes-KOH pH 7.5 and 200 mM sodium chloride, unless otherwise stated. 0.5 ml fractions were collected encompassing the void (7 ml) and bed (21 ml) volumes of the column. Fractions were separated by SDS-PAGE and stained with Coomassie Brilliant Blue (SERVA).

Sim3 [5] = assay: Pulldown of MBP H3 116–135 by Sim3; assay type: binding, Schizosaccharomyces pombe; conditions: (His)6-tagged recombinant homologue
Protocol: as §1, §2

Hif1-GST = assay: Gel filtration, Hif1-GST + MBP H3 116–135; assay type: binding, Saccharomyces cerevisiae; conditions: Superdex S200; 20 mM Hepes-KOH pH 7.5, 200 mM NaCl; Hif1 GST tagged
Protocol: as §3

Hif1 = assay: Pulldown of MBP H3 116–135 by Hif1; assay type: binding, Saccharomyces cerevisiae; conditions: (His)6-tagged recombinant homologue
Protocol: as §1, §2

sNASP [6] = assay: Analytical gel filtration, sNASP + MBP H3 116–135; assay type: binding, human; conditions: Superdex S200; 20 mM Hepes-KOH pH 7.5, 200 mM NaCl
Protocol: as §3

sNASP [7] = assay: Fluorescence-2-hybrid (F2H) assay at LacO array, EGFP-sNASP; assay type: cell-based, human; conditions: U2OS cells, LacO (256×) array, mCherry-LacI-histone constructs, live cells
Protocol: For all the F2H assays, we used human U2OS cells harbouring the stably integrated lacO (256×) array described earlier ([44]), except for mitochondrial F2H, which was carried out on U2OS cells without an integrated array. F2H assays were essentially performed as previously described in ([45],[46]) and ([44]). Image analysis was manually performed with ImageJ image analysis software. Fluorescence intensity at the LacI array was calculated as a percentage increase over the nucleoplasm. Assignment of the LacO array and nucleoplasm were done manually. Twenty cells were counted for statistical analysis so as not to inflate the calculated P-value. Only cells in which a clearly discernable array was present were counted. For the mitochondrial F2H, the first 70 residues of the outer mitochondrial membrane protein TOM70 were cloned onto the N-terminus of mCherry. Full length H3 or H3 residues 116–135 was then cloned onto the C-terminus of mCherry to create a TOM70-mCherry-Histone triple fusion. Deleting residues 378–383 using standard site-directed mutagenesis techniques disrupted the nuclear localization sequence (NLS) of mEGFP-sNASP, resulting in its cytoplasmic expression.

Substance: 125–135: H3 fragment fused to MBP (QLARRIRGERA; also: fused to MBP; UniProt P68431 126-136, looked up, fragment)
- pulldown by (His)6-sNASP ((His)6-sNASP): pulled down efficiently

Substance: CENPA: homologous region of the CENPA variant of H3 from human (VTLFPKDVQLARRIRGLEE; UniProt P49450 119-137, looked up, fragment)
- pulldown by (His)6-sNASP ((His)6-sNASP): able to pull down

Substance: MBP H3 116–135: C-terminal 20 residues of H3 fused to MBP
- pulldown by C. thermophilum homologue [1]: pulled down stoichiometric amounts
- stoichiometry in words (sNASP [2]; partial degradation likely caused underestimated ratios): close to 1:1 stoichiometry
- pKd (sNASP [2]; range of n = 3 with varying cell and titrant concentrations, read-out: dissociation constant): 7.17 to 7.33
- pulldown by A. thaliana homologue [3]: pulled down stoichiometric amounts
- complex formation with Sim3 by gel filtration (Sim3 [4]): coeluted
- pulldown by (His)6-sNASP ((His)6-sNASP): pulled down to near stoichiometric amounts
- pulldown by S. pombe homologue (Sim3) (Sim3 [5]): pulled down stoichiometric amounts
- complex formation with Hif1-GST by gel filtration (Hif1-GST): eluted in separate fractions
- pulldown by S. cerevisiae homologue (Hif1) (Hif1): no pull down was observed
- complex formation by gel filtration (sNASP [6]): form a stable complex

Substance: last 20 residues of H3: short region encompassing the last 20 residues of H3
- interaction with sNASP in F2H assay (sNASP [7]): sufficient for binding
